Active and inactive are the calls of the source.
How the values were obtained:
Cytochrome P450 2C9 = Cytochrome P450 2C9 (Homo sapiens, UniProt P11712)
Cytochrome P450 3A4 = Cytochrome P450 3A4 (Homo sapiens, UniProt P08684);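 also: CYP3A4 tested as one member of a cytochrome P450 panel screen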
Trypsin = Trypsin (Sus scrofa, UniProt P00761); experiment: porcine trypsin inhibitors, dose response, selectivity assay for Rce1 protease inhibitor project, biochemical, quenched peptide fluorescence, cherry-pick (AID 488789)
Chain of Trypsin (P00761 whole entry): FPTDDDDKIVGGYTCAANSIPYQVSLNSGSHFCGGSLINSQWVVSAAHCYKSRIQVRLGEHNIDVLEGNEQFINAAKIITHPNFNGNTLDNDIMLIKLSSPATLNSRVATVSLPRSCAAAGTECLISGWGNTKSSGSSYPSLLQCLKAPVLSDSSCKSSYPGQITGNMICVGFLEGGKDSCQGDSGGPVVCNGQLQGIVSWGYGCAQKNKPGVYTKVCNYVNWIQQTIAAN

CAAX prenyl protease 2 = target: T1, CAAX prenyl protease 2 (Homo sapiens, UniProt Q9Y256); experiment: human Rce1 protease inhibitors, dose response, biochemical, yeast membranes, quenched-peptide fluorescence, cherry-pick (AID 588849)
T1 sequence (Q9Y256 whole entry): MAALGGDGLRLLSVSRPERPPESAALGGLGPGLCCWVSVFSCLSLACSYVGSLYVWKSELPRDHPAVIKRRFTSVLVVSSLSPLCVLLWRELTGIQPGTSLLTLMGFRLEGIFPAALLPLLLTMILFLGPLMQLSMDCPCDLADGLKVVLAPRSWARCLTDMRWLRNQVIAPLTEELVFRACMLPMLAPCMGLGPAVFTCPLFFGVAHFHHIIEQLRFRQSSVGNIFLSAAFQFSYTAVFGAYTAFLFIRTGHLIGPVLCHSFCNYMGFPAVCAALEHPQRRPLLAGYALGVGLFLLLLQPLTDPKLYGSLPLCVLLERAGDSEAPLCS

[1] = THP-1 cell cytotoxicity, dose response, cytotoxicity control for non-replicating M. tuberculosis project (AID 489025); format: functional
[2] = HepG2 cell cytotoxicity, dose response, cytotoxicity control for non-replicating M. tuberculosis project (AID 489018); format: functional; settings: Mycobacterium tuberculosis
[3] = Vero E6 cell cytotoxicity, dose response, cytotoxicity control for non-replicating M. tuberculosis project, secondary assay (AID 492998); format: functional, VeroE6; settings: Vero C1008
cells = format: functional
Beta-galactosidase = Beta-galactosidase (Escherichia coli, UniProt Q8VNN2); experiment: PubChem AID 485352; format: functional
Chain of Beta-galactosidase (Q8VNN2 whole entry): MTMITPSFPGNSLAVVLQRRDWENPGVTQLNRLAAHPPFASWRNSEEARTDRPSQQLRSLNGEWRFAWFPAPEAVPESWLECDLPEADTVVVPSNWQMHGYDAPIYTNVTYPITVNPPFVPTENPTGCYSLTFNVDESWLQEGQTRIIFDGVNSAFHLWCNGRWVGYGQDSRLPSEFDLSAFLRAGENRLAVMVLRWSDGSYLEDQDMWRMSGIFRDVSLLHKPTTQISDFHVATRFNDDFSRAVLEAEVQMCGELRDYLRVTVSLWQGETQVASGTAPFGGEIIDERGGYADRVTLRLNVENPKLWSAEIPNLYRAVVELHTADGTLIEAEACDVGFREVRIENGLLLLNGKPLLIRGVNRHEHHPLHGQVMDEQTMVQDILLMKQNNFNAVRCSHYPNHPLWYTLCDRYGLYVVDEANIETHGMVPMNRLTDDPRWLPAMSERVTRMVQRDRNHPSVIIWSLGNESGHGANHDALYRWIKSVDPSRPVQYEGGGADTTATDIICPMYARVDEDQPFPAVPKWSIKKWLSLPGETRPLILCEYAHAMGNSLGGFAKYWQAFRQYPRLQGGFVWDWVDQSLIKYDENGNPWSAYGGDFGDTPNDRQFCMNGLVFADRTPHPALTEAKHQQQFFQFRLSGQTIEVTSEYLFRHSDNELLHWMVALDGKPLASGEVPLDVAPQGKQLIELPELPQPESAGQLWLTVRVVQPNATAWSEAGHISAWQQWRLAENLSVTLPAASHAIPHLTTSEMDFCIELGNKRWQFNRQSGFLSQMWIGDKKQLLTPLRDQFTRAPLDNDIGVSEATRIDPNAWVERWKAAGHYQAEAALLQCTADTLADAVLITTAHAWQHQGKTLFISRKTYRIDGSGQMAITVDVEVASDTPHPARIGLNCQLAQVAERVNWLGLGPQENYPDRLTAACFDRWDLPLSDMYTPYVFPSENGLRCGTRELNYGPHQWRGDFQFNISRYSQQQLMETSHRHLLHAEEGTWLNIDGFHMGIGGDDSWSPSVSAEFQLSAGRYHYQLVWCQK

[4] = target: T2, Type-1 angiotensin II receptor (Homo sapiens, UniProt P30556); experiment: AT1 receptor antagonists, dose response, selectivity assay for APJ receptor antagonist project, cell-based, uHTS hits (AID 463214); format: functional;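 also: antagonist potency against angiotensin II stimulated AT1 response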
T2 sequence (P30556 whole entry): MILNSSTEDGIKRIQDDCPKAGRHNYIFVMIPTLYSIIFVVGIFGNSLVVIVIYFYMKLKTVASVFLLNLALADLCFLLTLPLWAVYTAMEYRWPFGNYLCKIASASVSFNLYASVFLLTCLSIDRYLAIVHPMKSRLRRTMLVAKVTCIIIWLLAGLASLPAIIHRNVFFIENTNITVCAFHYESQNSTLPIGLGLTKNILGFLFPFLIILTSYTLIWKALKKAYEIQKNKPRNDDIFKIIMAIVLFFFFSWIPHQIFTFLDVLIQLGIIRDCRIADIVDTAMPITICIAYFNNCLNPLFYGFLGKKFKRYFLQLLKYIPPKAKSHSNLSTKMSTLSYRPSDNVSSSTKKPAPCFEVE

[5] = NIH-3T3 fibroblast cytotoxicity, dose response, cytotoxicity control, cell-based, fluorescence, Alamar Blue, secondary assay (AID 2327); format: functional;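 also: NIH-3T3 mouse fibroblasts cultured with fluconazole at 8 µg/mL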
[6] = system: Streptococcus sp. 'group A'; experiment: growth inhibition of control SK(-) GAS strain, dose response, counter-screen for streptokinase expression inhibitor project, luminescence, kanamycin, BacTiterGlo, confirmation (AID 1900); format: functional, organism-based; settings: read-out: EC50
[7] = C. albicans growth with fluconazole, confirmation, fluorescence, retest (AID 2467); format: functional, cell-based
Streptococcus = experiment: Group A Streptococcus viability loss, dose response, counter-screen for streptokinase expression inhibitor project, luminescence, BacTiterGlo (AID 1915); format: functional, organism-based;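 also: potency for reduction of bacterial viability or growth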
[8] = target: T3, Microphthalmia-associated transcription factor (Homo sapiens, UniProt O75030); experiment: TRPM1 promoter luciferase signal decrease, dose response, MITF inhibitor project, cell-based, SK-MEL-5, cherry-picked, set 3 (AID 493073); format: functional
T3 sequence (O75030 whole entry): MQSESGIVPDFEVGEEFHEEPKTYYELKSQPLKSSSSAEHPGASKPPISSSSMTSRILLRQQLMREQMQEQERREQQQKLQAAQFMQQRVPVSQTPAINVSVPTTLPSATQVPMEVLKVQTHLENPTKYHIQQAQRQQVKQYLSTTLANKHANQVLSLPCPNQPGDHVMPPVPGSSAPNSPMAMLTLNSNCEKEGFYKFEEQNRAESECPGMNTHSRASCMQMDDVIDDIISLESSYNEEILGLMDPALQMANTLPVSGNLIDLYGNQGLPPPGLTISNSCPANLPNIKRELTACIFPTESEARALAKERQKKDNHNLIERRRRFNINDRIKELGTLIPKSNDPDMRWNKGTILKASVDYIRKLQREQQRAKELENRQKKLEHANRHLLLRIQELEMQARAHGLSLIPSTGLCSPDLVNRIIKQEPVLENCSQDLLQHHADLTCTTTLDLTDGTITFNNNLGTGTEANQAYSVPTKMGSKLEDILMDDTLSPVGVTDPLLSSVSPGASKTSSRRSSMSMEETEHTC

H9c2 = experiment: cells; format: functional, cell-based; settings: Rattus norvegicus, H9c2, Myocardium;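 also: confirmatory concentration-response retest of ultra-high-throughput screening hits for modulation of myocardial damage; cell death induced by hydrogen peroxide oxidative stress; compound pretreatment for 60 min then peroxide exposure for 2 h; potency is for protecting the cells against peroxide damage rather than for killing them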
Vero [9] = experiment: cells; format: functional, cell-based; settings: Chlorocebus sabaeus
Vero [10] = experiment: cells; format: functional; settings: Chlorocebus sabaeus
[11] = target: T4, Heat shock factor protein 1 (Mus musculus, UniProt P38532); experiment: HSF1 potentiators in luciferase reporter cells, confirmation, cell-based, NIH3T3, luminescence, dose retest (AID 435004); format: functional;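 also: stress induced by proteasome inhibitor MG132 added 30 min after compound; luciferase reporter driven by HSF1 response element in NIH3T3 cells; actives raise luminescence as potentiators of the MG132 stress response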
T4 sequence (P38532 whole entry): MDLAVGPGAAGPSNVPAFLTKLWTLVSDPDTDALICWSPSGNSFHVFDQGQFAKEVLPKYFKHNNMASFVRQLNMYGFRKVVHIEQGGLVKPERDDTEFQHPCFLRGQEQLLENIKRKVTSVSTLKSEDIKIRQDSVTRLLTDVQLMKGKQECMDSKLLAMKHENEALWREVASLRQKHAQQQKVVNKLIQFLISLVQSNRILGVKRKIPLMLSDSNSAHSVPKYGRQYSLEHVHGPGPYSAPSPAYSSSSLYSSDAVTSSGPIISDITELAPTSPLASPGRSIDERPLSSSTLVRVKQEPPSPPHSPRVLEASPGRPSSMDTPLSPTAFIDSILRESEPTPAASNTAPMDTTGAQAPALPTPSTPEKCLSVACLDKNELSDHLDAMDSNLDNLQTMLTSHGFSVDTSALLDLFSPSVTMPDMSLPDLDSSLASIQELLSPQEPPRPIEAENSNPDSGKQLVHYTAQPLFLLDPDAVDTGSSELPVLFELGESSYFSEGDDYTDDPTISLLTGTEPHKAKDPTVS

HEK293 = experiment: inhibitors of LMP1-driven NF-kB reporter, dose response, cell-based, HEK293, luciferase, cherry-pick (AID 588343); format: functional; settings: Homo sapiens

Chain of Cytochrome P450 2C9 (P11712 whole entry): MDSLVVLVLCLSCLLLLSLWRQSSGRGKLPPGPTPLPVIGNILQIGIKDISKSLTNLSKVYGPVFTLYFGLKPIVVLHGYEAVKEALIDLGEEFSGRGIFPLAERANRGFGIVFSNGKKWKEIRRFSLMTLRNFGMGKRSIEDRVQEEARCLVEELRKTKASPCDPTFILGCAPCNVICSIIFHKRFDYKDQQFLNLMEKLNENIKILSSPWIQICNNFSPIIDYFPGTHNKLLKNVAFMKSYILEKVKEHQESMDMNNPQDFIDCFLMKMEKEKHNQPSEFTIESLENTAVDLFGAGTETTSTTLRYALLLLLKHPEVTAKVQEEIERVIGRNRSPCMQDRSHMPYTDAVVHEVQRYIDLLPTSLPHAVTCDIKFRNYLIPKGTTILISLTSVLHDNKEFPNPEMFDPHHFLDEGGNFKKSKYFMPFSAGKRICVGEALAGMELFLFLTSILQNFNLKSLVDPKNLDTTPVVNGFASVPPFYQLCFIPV
Chain of Cytochrome P450 3A4 (P08684 whole entry): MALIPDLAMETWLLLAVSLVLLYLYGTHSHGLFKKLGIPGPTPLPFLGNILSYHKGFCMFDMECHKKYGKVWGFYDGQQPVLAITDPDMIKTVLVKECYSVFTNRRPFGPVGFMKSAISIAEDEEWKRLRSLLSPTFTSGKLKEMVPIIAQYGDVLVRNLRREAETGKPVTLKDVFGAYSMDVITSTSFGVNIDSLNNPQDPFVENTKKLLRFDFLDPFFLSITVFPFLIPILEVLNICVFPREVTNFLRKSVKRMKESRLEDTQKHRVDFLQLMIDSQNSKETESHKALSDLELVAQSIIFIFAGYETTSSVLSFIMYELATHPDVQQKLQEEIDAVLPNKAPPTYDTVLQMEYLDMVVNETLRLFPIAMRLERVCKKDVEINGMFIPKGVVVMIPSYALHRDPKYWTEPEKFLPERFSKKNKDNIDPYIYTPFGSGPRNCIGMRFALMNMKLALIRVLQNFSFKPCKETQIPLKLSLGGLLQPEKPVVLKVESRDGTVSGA

With Cn1c(=O)c(-c2ccccc2)nc2cnc(Oc3ccccc3)nc21 the AC50 (Cytochrome P450 2C9) was 12.6 µM (inconclusive) and the AC50 (Cytochrome P450 3A4) was “inconclusive”.
In the case of CCN1CCN(Cc2c(O)ccc3c(=O)c(-c4ccccc4OC)coc23)CC1, the AC50 (Trypsin) is reported as 16 µM (active) and the AC50 (CAAX prenyl protease 2) is reported as 5.2 µM (active).
For CCc1ccc2c(c1)Sc1ccccc1CC2N1CCN(C)CC1 (centres undefined), the CC50 [1] was 15.8 µM (active), the CC50 [2] was > 20 µM (active) and the CC50 [3] was > 20 µM (active). The IC50 (cells) was 14.1 µM (active).
In the case of O=C(COc1ccccc1)OCC(=O)c1ccc(S(=O)(=O)N2CCCCC2)cc1, the EC50 (Beta-galactosidase) is reported as > 40 µM (inactive) and the IC50 [4] is reported as 16.9 µM (active).
For Cc1cc(C)c2ccc(N)nc2c1O, the EC50 [5] was > 150 µM (inconclusive), the EC50 [6] was 3.15 µM (active) and the EC50 (Beta-galactosidase) was > 40 µM (inactive). For the same molecule, the EC50 [7] was > 38 µM (not active), the IC50 [4] was 13.7 µM (active) and the EC50 (Streptococcus) was 9.09 µM (active). For the same molecule, the AC50 [8] was 9.58 µM (active) and the IC50 (H9c2) was > 79 µM (inactive).
For Cc1ccc(N(Cc2cc(O)nc3ccccc23)C(=O)CCl)c(C)c1, the IC50 (Vero [9]) was > 25 µM (active) and the CC50 (Vero [10]) was 7.95 µM (active).
With COc1cc2c(cc1OC)C(CCc1ccccc1)=NCC2 the AC50 (Trypsin) was 9.41 µM (active), the EC50 [11] was > 260 µM (inactive) and the AC50 (CAAX prenyl protease 2) was 6.03 µM (active).
For CCOc1ccccc1C(=O)N[C@H](C(=O)OCc1cc([N+](=O)[O-])cc2c1OCOC2)C(C)C, the AC50 (HEK293) was 183 µM (active).
